The source of these data is US20150239889A1, “PYRAZOLOPYRIMIDINE COMPOUND” (MITSUBISHI TANABE PHARMA CORPORATION, priority 2012, published 2015).

The target of one experiment is T1, human HIF-PHD3 (Homo sapiens, UniProt Q9H6Z9).
T1 construct: purchased CrystalGenomics Ltd
Put plainly: HIF-PHD inhibition assay (fluorescence polarization), human HIF-PHD3. It is filed as biochemical. The settings on record: 2-oxoglutaric acid 166 μmol/L. Summed up:
(§1)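 Fluorescence polarization was read before and after adding enzyme, and the difference (mP value) taken as enzyme activity. The tracer carried a FAM (5′-fluoresceinamide) tag linked via aminocaproic acid.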

For a further experiment, the target named is T2, human HIF-PHD2 (Homo sapiens, UniProt Q9GZT9).
T2 construct: purchased CrystalGenomics Ltd
Put plainly: HIF-PHD inhibition assay (fluorescence polarization), human HIF-PHD2. Format: biochemical. The settings on record: 2-oxoglutaric acid 3.33 μmol/L. Put shortly:
as §1

For a further experiment, the system named is Hep3B cells. Kind of experiment: EPO production assay (ELISA of culture supernatant). Format: cell-based. The settings on record: Homo sapiens, 3 μmol/L test compound, 48 hours, relative to control (0.1% DMSO), read-out: EPO production stimulation rate with 3 μmol/L test compound. Put shortly: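 Hep3B cells (40000/well) switched to MEM with 0.5% FBS and treated with compound (0.1% DMSO) for 48 h at 37 °C. Supernatant EPO measured by ELISA; value is fold stimulation at 3 μmol/L compound over unstimulated control.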

T2 sequence (Q9GZT9 2-426 limits assumed): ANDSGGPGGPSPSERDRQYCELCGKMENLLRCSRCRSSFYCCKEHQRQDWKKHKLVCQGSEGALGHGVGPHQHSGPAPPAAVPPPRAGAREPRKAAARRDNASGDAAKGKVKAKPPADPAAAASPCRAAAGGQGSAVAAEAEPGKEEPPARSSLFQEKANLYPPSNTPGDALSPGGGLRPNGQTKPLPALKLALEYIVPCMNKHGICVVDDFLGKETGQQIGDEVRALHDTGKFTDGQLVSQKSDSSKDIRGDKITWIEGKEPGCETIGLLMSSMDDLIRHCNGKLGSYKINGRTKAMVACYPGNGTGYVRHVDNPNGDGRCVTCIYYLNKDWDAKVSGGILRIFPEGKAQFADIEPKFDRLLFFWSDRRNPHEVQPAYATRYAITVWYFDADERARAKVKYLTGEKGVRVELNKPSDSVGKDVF
T1 sequence (Q9H6Z9 whole entry): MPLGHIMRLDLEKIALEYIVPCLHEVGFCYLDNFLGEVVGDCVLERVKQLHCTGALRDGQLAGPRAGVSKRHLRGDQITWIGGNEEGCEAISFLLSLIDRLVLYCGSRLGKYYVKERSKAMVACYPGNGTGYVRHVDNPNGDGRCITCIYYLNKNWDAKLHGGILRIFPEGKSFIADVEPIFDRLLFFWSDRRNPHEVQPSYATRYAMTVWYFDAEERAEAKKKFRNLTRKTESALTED

Take `O=C(O)c1cnn(-c2nc(O)c3c(n2)c(F)nn3CC2CCCCC2)c1` [Example 217]: the half-inhibitory concentration (IC50) (in general, the concentration that gives 50% inhibition) against human HIF-PHD3 is 920 nM; on human HIF-PHD2 it was 32 nM. The fold induction at 3 µM in the experiment with Hep3B cells is 2.4.
Regarding `C[C@H]1CC[C@H](Cn2nc(F)c3nc(-n4cc(C(=O)O)cn4)nc(O)c32)CC1` [Example 218], the 50% inhibitory concentration (IC50) against human HIF-PHD3 came to 750 nM; against human HIF-PHD2 it was 15 nM. Also, in the experiment with Hep3B cells, the fold induction at 3 µM was 3.
On to `O=C(O)c1cnn(-c2nc(O)c3c(n2)c(Cl)nn3Cc2ccc(Br)cc2)c1` [Example 220], for which the half-inhibitory concentration (IC50) turned out to be 340 nM at human HIF-PHD3 and 14 nM at human HIF-PHD2. The fold induction at 3 µM in the experiment with Hep3B cells was 4.
Consider `O=C(O)c1cnn(-c2nc(O)c3c(n2)c(Cl)nn3CC2CCCCC2)c1` [Example 222], for which the IC50 at human HIF-PHD3 was 450 nM; on human HIF-PHD2, 48 nM. The fold induction at 3 µM in the experiment on Hep3B cells is 1.5.
`C[C@H]1CC[C@H](Cn2nc(Cl)c3nc(-n4cc(C(=O)O)cn4)nc(O)c32)CC1` [Example 223]: the figures for the concentration for half-maximal inhibition (IC50) on human HIF-PHD3 and at human HIF-PHD2 were 950 nM and 28 nM, respectively. The fold induction at 3 µM with Hep3B cells was 3.2.
`CC(C)[C@H]1CC[C@H](Cn2nc(Cl)c3nc(-n4cc(C(=O)O)cn4)nc(O)c32)CC1` [Example 224]: the IC50 stood at 91 nM at human HIF-PHD3 and 11 nM against human HIF-PHD2. The fold induction at 3 µM in the experiment on Hep3B cells was 8.4.
The matching figures for `O=C(O)c1cnn(-c2nc(O)c3c(n2)c(Cl)nn3CC2CCCCCC2)c1` [Example 226]: 1400 nM, 47 nM and 2.2.
On to `Cc1nn(Cc2ccc(-c3ccccc3)cc2)c2c(O)nc(-n3cc(C(=O)O)cn3)nc12` [Example 228], for which the IC50 came to 68 nM at human HIF-PHD3 and 10 nM against human HIF-PHD2. The fold induction at 3 µM in the experiment with Hep3B cells amounted to 3.9.
For the compound `O=C(O)c1cnn(-c2nc(O)c3c(n2)c(C2CC2)nn3CC2CCCCC2)c1` [Example 234], the IC50 was 660 nM on human HIF-PHD3 and 91 nM against human HIF-PHD2. Moreover, the fold induction at 3 µM with Hep3B cells stood at 5.7.
The matching figures for `O=C(O)c1cnn(-c2nc(O)c3nn(Cc4ccc(Cl)c(Cl)c4)cc3n2)c1` [Example 235]: 13 nM, 3 nM and 1.9.
As for `COc1ccc(Cn2cc3nc(-n4cc(C(=O)O)cn4)nc(O)c3n2)cc1` [Example 236], the half-maximal inhibitory concentration (IC50) was found to be 77 nM against human HIF-PHD3 and 11 nM against human HIF-PHD2. Further, in the experiment with Hep3B cells, the fold induction at 3 µM came to 0.91.
For the compound `O=C(O)c1cnn(-c2nc(O)c3nn(Cc4cc(C(F)(F)F)cc(Cl)c4F)cc3n2)c1` [Example 238], the IC50 was 770 nM at human HIF-PHD3 and 10 nM against human HIF-PHD2. The fold induction at 3 µM in the experiment on Hep3B cells was found to be 0.7.
Take `O=C(O)c1cnn(-c2nc(O)c3nn(C(c4ccc(Cl)cc4)c4ccc(Cl)cc4)cc3n2)c1` [Example 239]: the IC50 stood at 99 nM on human HIF-PHD3 and 5.5 nM against human HIF-PHD2. Moreover, the fold induction at 3 µM in the experiment with Hep3B cells worked out at 1.4.
The matching figures for `O=C(O)c1cnn(-c2nc(O)c3nn(Cc4cccc(-c5ccccc5)c4)cc3n2)c1` [Example 240]: 140 nM, 17 nM and 1.
On to `O=C(O)c1cnn(-c2nc(O)c3nn(Cc4ccccc4-c4ccccc4)cc3n2)c1` [Example 241], for which the IC50 on human HIF-PHD3 stood at 370 nM; at human HIF-PHD2 it was 8.7 nM. Further, the fold induction at 3 µM with Hep3B cells was 1.2.
For the compound `O=C(O)c1cnn(-c2nc(O)c3nn(Cc4ccc5ccccc5c4)cc3n2)c1` [Example 242], the 50% inhibitory concentration (IC50) worked out at 150 nM against human HIF-PHD3 and 17 nM at human HIF-PHD2. Besides, in the experiment with Hep3B cells, the fold induction at 3 µM worked out at 1.7.
With `O=C(O)c1cnn(-c2nc(O)c3nn(CCc4ccc5ccccc5c4)cc3n2)c1` [Example 243], the IC50 at human HIF-PHD3 stood at 260 nM; at human HIF-PHD2, 57 nM. In the experiment with Hep3B cells, the fold induction at 3 µM turned out to be 1.6.
For `O=C(O)c1cnn(-c2nc(O)c3nn(Cc4ccc(Cl)cc4F)cc3n2)c1` [Example 244], the IC50 is 180 nM on human HIF-PHD3 and 63 nM against human HIF-PHD2. Further, the fold induction at 3 µM in the experiment on Hep3B cells amounted to 1.4.
With `O=C(O)c1cnn(-c2nc(O)c3nn(Cc4ccc(-c5ccccc5)cc4F)cc3n2)c1` [Example 245], the figures for the IC50 at human HIF-PHD3 and at human HIF-PHD2 were 68 nM and 2.3 nM, respectively. Also, in the experiment on Hep3B cells, the fold induction at 3 µM is 6.2.
Regarding `O=C(O)c1cnn(-c2nc(O)c3nn(CCCN(c4ccccc4)c4ccccc4)cc3n2)c1` [Example 246], the IC50 was determined as 160 nM on human HIF-PHD3 and 21 nM at human HIF-PHD2. Also, the fold induction at 3 µM in the experiment on Hep3B cells turned out to be 1.8.
Regarding `O=C(O)c1cnn(-c2nc(O)c3nn(CC4CCN(c5ccc(C(F)(F)F)cn5)CC4)cc3n2)c1` [Example 247], the IC50 at human HIF-PHD3 was determined as 270 nM; against human HIF-PHD2, 17 nM. Moreover, the fold induction at 3 µM in the experiment on Hep3B cells came out at 1.3.
For `O=C(O)c1cnn(-c2nc(O)c3nn(CCC(c4ccccc4)c4ccccc4)cc3n2)c1` [Example 248] the same measures were 99 nM, 15 nM and 3.2.
Turning to `CCC(c1ccc(C(F)(F)F)cc1)n1ncc2nc(-n3cc(C(=O)O)cn3)nc(O)c21` (stereo not drawn) [Example 326], the IC50 on human HIF-PHD3 worked out at 360 nM; on human HIF-PHD2, 53 nM. The fold induction at 3 µM with Hep3B cells was 7.7.
Regarding `O=C(O)c1cnn(-c2nc(O)c3c(cnn3CC3CCC4(CC3)CC4)n2)c1` [Example 378], the IC50 is 290 nM at human HIF-PHD3 and 23 nM on human HIF-PHD2. The fold induction at 3 µM in the experiment on Hep3B cells was found to be 9.6.
The matching figures for `O=C(O)c1cnn(-c2nc(O)c3c(cnn3CC3CCC4(CCC4)CC3)n2)c1` [Example 379]: 200 nM, 16 nM and 10.
As to `CC1(C)CCC(Cn2ncc3nc(-n4cc(C(=O)O)cn4)nc(O)c32)CC1` [Example 380], the IC50 against human HIF-PHD3 came out at 400 nM; on human HIF-PHD2, 20 nM. In addition, the fold induction at 3 µM in the experiment with Hep3B cells was determined as 3.9.
Take `O=C(O)c1cnn(-c2nc(O)c3c(cnn3CC34CC5CC(CC(C5)C3)C4)n2)c1` [Example 381]: the IC50 is 500 nM at human HIF-PHD3 and 46 nM on human HIF-PHD2. For the same compound, the fold induction at 3 µM in the experiment on Hep3B cells stood at 6.3.
Regarding `C[C@@H](c1ccc(C(F)(F)F)cc1)n1nc(F)c2nc(-n3cc(C(=O)O)cn3)nc(O)c21` [Example 439], the IC50 at human HIF-PHD3 amounted to 550 nM; at human HIF-PHD2, 22 nM. Besides, the fold induction at 3 µM with Hep3B cells was 5.3.
For the compound `C[C@@H](c1ccc(Cl)c(Cl)c1)n1nc(F)c2nc(-n3cc(C(=O)O)cn3)nc(O)c21` [Example 440], the IC50 against human HIF-PHD3 worked out at 160 nM; against human HIF-PHD2, 17 nM. The fold induction at 3 µM in the experiment on Hep3B cells was found to be 2.6.
In the case of `C[C@@H](c1ccc2ccccc2c1)n1nc(F)c2nc(-n3cc(C(=O)O)cn3)nc(O)c21` [Example 442], the IC50 came to 360 nM against human HIF-PHD3 and 11 nM at human HIF-PHD2. The fold induction at 3 µM with Hep3B cells is 3.3.
On to `C[C@@H](c1ccc(C(F)(F)F)cc1)n1nc(Cl)c2nc(-n3cc(C(=O)O)cn3)nc(O)c21` [Example 443], for which the IC50 against human HIF-PHD3 stood at 250 nM; against human HIF-PHD2, 16 nM. Also, in the experiment with Hep3B cells, the fold induction at 3 µM came out at 2.9.
The matching figures for `Cc1nn(Cc2ccc(C(F)(F)F)cc2)c2c(O)nc(-n3cc(C(=O)O)cn3)nc12` [Example 444]: 360 nM, 37 nM and 2.2.
For `Cc1nn([C@@H](C)c2ccc(C(F)(F)F)cc2)c2c(O)nc(-n3cc(C(=O)O)cn3)nc12` [Example 446] the same measures were 480 nM, 18 nM and 6.3.
For `Cc1nn([C@@H](C)c2ccc(Cl)c(Cl)c2)c2c(O)nc(-n3cc(C(=O)O)cn3)nc12` [Example 447], the results for the 50% inhibitory concentration (IC50) at human HIF-PHD3 and on human HIF-PHD2 were 560 nM and 20 nM, respectively. Besides, the fold induction at 3 µM in the experiment with Hep3B cells worked out at 5.4.
The matching figures for `Cc1nn([C@@H](C)c2ccc3ccccc3c2)c2c(O)nc(-n3cc(C(=O)O)cn3)nc12` [Example 454]: 730 nM, 30 nM and 2.7.
As to `O=C(O)c1cnn(-c2nc(O)c3c(n2)c(F)nn3C[C@H]2CC[C@H](C(F)(F)F)CC2)c1` [Example 465], the figures for the IC50 on human HIF-PHD3 and at human HIF-PHD2 were 210 nM and 11 nM, respectively. Further, the fold induction at 3 µM with Hep3B cells stood at 2.5.
As to `O=C(O)c1cnn(-c2nc(O)c3c(n2)c(F)nn3CC2CCC3(CC2)CC3)c1` [Example 466], the IC50 at human HIF-PHD3 worked out at 240 nM; on human HIF-PHD2, 12 nM. Moreover, the fold induction at 3 µM in the experiment with Hep3B cells is 2.6.
As for `O=C(O)c1cnn(-c2nc(O)c3c(n2)c(F)nn3CC2CCC3(CCC3)CC2)c1` [Example 467], the values for the half-maximal inhibitory concentration (IC50) against human HIF-PHD3 and against human HIF-PHD2 were 270 nM and 15 nM, respectively. The fold induction at 3 µM in the experiment on Hep3B cells is 3.2.
With `C[C@@H](C1CCCCC1)n1nc(F)c2nc(-n3cc(C(=O)O)cn3)nc(O)c21` [Example 468], the IC50 amounted to 300 nM against human HIF-PHD3 and 25 nM on human HIF-PHD2. For the same compound, in the experiment on Hep3B cells, the fold induction at 3 µM is 3.1.
With `CC1(Cn2nc(F)c3nc(-n4cc(C(=O)O)cn4)nc(O)c32)CCCCC1` [Example 470], the concentration for half-maximal inhibition (IC50) stood at 260 nM against human HIF-PHD3 and 48 nM against human HIF-PHD2. Also, in the experiment with Hep3B cells, the fold induction at 3 µM stood at 1.7.
For `O=C(O)c1cnn(-c2nc(O)c3c(n2)c(F)nn3CCC2CCCC2)c1` [Example 471] the same measures were 170 nM, 15 nM and 1.4.
For `O=C(O)c1cnn(-c2nc(O)c3c(n2)c(F)nn3CCC2CCCCC2)c1` [Example 472], the results for the half-inhibitory concentration (IC50) against human HIF-PHD3 and at human HIF-PHD2 were 350 nM and 17 nM, respectively. The fold induction at 3 µM in the experiment on Hep3B cells was 2.4.
With `Cc1nn(CC2CCCCCC2)c2c(O)nc(-n3cc(C(=O)O)cn3)nc12` [Example 473], the figures for the IC50 on human HIF-PHD3 and against human HIF-PHD2 were 1200 nM and 48 nM, respectively. Besides, the fold induction at 3 µM with Hep3B cells is 2.
